Results on 21 compounds are retold here after patent US10307413B2, “Tetrahydro- and dihydro-isoquinoline PRMT5 inhibitors and uses thereof” (Epizyme, Inc., priority 2013, dated 2019).

The test system of one assay is Z-138 cell line. Briefly: Z-138 Proliferation Assay (Cell Titer Glo, 5 days). Format: cell-based. Conditions: Homo sapiens, read-out: Proliferation EC50. The procedure, abridged:
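Viability via CellTiter-Glo luminescence (ATP) after 5-day incubation at 37 °C, 5% CO2. Compounds tested in triplicate, nine 3-fold steps, highest final concentration 20 μM in 0.2% DMSO; 50% inhibitory concentration by 4-parameter fit of normalized curves.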
For orientation: Cellular ATP, detected with luciferase, serves as a proxy for viable cell number.

Assay [1] relates to symmetric di-methyl arginine in Z-138 cells. The experiment in a line: Z-138 Methylation Assay (In Cell Western for symmetric di-methyl arginine and DNA content). Format: cell-based. As to conditions: Homo sapiens, read-out: ICW EC50. The procedure, abridged:
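In-cell western: symmetric di-methyl arginine signal ratioed to DRAQ5 DNA content after 96 h compound exposure of Z-138 cells seeded at 50,000 cells/mL.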

In the next assay the target is PRMT5/MEP50 (Homo sapiens (Human), UniProt O14744). The experiment in a line: PRMT5 Biochemical Assay (PRMT5/MEP50 enzyme assay on peptide substrate, 3H-SAM Flashplate). The procedure, abridged:
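Radiometric methylation of a biotin-tagged H4(1-15) peptide by human PRMT5/MEP50 from baculovirus/Sf9, with ³H-SAM incorporation read on streptavidin Flashplates. Buffer: Bicine pH 7.6, TCEP, BSG, Tween20; compound preincubated 30 min at 25 °C; stopped with 600 µM final unlabeled SAM. DMSO and SAH controls; IC50 from fitted % inhibition.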

Where [2] appears, read: 120 h, Z-138 cells, 5 days, Cell Titer Glo.

Like-named read-outs stand apart in the source and are kept apart here.

Sequence of PRMT5/MEP50 (O14744 other isoform, or with tags, fused parts or gaps): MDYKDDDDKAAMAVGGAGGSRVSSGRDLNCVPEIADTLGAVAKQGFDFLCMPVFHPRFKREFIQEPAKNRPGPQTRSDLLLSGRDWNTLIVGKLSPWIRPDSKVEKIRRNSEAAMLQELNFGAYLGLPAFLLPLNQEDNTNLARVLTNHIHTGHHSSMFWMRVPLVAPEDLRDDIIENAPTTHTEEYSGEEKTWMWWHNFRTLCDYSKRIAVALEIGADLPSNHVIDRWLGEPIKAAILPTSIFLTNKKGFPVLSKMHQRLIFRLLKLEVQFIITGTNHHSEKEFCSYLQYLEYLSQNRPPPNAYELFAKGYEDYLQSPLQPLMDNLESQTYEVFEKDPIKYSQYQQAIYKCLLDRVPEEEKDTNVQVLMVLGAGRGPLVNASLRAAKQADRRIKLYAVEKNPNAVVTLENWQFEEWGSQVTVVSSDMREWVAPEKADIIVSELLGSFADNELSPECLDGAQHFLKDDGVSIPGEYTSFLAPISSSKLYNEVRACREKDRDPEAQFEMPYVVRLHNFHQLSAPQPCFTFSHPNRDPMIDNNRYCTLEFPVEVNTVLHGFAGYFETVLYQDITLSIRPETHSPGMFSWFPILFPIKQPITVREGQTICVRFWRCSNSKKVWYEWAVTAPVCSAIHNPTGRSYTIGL
Sequence of PRMT5/MEP50 (Q9BQA1 other isoform, or with tags, fused parts or gaps partner): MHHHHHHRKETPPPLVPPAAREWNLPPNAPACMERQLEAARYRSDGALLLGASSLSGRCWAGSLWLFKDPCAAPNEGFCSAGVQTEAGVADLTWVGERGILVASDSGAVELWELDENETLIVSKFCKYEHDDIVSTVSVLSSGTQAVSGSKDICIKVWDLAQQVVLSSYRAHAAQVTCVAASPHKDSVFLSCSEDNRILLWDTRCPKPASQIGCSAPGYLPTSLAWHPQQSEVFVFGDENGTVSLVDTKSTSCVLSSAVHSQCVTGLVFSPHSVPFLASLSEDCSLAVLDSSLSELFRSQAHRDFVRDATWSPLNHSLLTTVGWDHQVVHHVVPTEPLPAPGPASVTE

What is called IC50 is the concentration at which inhibition is half-maximal. Turning to `O=C(NC[C@H](O)CN1CCc2ccccc2C1)c1cnnc(NC2CCOCC2)c1` [Compound 693], the values for the EC50 (in the assay on Z-138 cell line (setting [2]); in assay [1] (In Cell Western methylation)) were 101 to 1000 nM and under 100 nM, respectively. Further, the half-maximal inhibitory concentration (IC50) on PRMT5/MEP50 (PRMT5 biochemical assay) is under 100 nM.
For `CN(C)CCN(C)c1nc(NC2COC2)cc(C(=O)NC[C@H](O)CN2CCc3ccccc3C2)n1` [Compound 525], the figures for the EC50 (in the assay with Z-138 cell line (setting [2]); in assay [1] (In Cell Western methylation)) were 101 to 1000 nM and under 100 nM, respectively. In addition, the concentration for half-maximal inhibition (IC50) at PRMT5/MEP50 (PRMT5 biochemical assay) was under 100 nM.
Take `O=C(NC[C@H](O)CN1CCc2ccccc2C1)c1cc(NC2CNC2)nc(N2CCC2)n1` [Compound 502]: the EC50 is 1000 to 10000 nM with Z-138 cell line (setting [2]) and 101 to 1000 nM in assay [1] (In Cell Western methylation). Further, the IC50 on PRMT5/MEP50 (PRMT5 biochemical assay) is under 100 nM.
For `CC(=O)N1CCC(Nc2cc(C(=O)NCC(F)CN3CCc4ccccc4C3)ccn2)CC1` (stereo not drawn) [Compound 698], the EC50 was 1000 to 10000 nM in the assay on Z-138 cell line (Z-138, 120 h) and under 100 nM in assay [1] (In Cell Western methylation). Moreover, the 50% inhibitory concentration (IC50) at PRMT5/MEP50 (PRMT5 biochemical assay) was under 100 nM.
As for `O=C(NC[C@H](O)CN1CCc2ccccc2C1)c1cc(NC2CCN(C(=O)C3CC3)CC2)ccn1` [Compound 638], the EC50 (in the assay on Z-138 cell line (setting [2]); in assay [1] (In Cell Western methylation)) was under 100 nM each time. Besides, the half-inhibitory concentration (IC50) on PRMT5/MEP50 (PRMT5 biochemical assay) is under 100 nM.
Regarding `CC(=O)N1CC(Nc2cc(C(=O)NC[C@H](O)CN3CCc4ccccc4C3)nc(C(F)(F)F)n2)C1` [Compound 474], the EC50 was 101 to 1000 nM in the assay on Z-138 cell line (setting [2]) and under 100 nM in assay [1] (In Cell Western methylation). In addition, on PRMT5/MEP50 (PRMT5 biochemical assay), the half-maximal inhibitory concentration (IC50) was under 100 nM.
In the case of `O=C(NC[C@H](O)CN1CCc2ccccc2C1)c1ccc(OCCN2CCCC2)cc1` [Compound 383], the EC50 in the assay with Z-138 cell line (120 h, Z-138 cells, 5 days) is 1000 to 10000 nM; in assay [1], under 100 nM. Besides, the concentration for half-maximal inhibition (IC50) at PRMT5/MEP50 is under 100 nM.
Take `O=C(NC[C@H](O)CN1CCc2ccccc2C1)c1ccnc(NC2COC2)c1` [Compound 378]: the EC50 was over 20000 nM in the assay on Z-138 cell line (120 h, Z-138 cells, 5 days) and over 1000 nM in assay [1]. The 50% inhibitory concentration (IC50) at PRMT5/MEP50 was under 100 nM.
Regarding `O=C(NC[C@H](O)CN1CCc2ccccc2C1)c1cc(NC2CNC2)nc(N2CCOCC2)n1` [Compound 447], the EC50 with Z-138 cell line (setting [2]) was 1000 to 10000 nM; in assay [1] (In Cell Western methylation), under 100 nM. The half-maximal inhibitory concentration (IC50) on PRMT5/MEP50 (PRMT5 biochemical assay) is under 100 nM.
In the case of `Cc1cnc(NC2CNC2)cc1C(=O)NC[C@H](O)CN1CCc2ccccc2C1` [Compound 341], the EC50 in the assay on Z-138 cell line (120 h, Z-138 cells, 5 days) is over 20000 nM; in assay [1], over 1000 nM. In addition, the IC50 at PRMT5/MEP50 was under 100 nM.
For `CNCCN(C)c1nc(NC2CNC2)cc(C(=O)NC[C@H](O)CN2CCc3ccccc3C2)n1` [Compound 482], the EC50 lay in the range of 1000 to 10000 nM in the assay with Z-138 cell line (setting [2]) and 101 to 1000 nM in assay [1] (In Cell Western methylation). The IC50 on PRMT5/MEP50 (PRMT5 biochemical assay) is under 100 nM.
For the compound `COCCN(C)c1cc(C(=O)NC[C@H](O)CN2CCc3ccccc3C2)cc(NC2CCN(C(C)=O)CC2)n1` [Compound 614], the EC50 (in the assay on Z-138 cell line (setting [2]); in assay [1] (In Cell Western methylation)) was under 100 nM in each case. Also, at PRMT5/MEP50 (PRMT5 biochemical assay), the half-maximal inhibitory concentration (IC50) is under 100 nM.
As for `CC(=O)N[C@H]1CC[C@@H](Nc2cc(C(=O)NC[C@H](O)CN3CCc4ccccc4C3)ncn2)CC1` [Compound 590], the results for the EC50 (with Z-138 cell line (setting [2]); in assay [1] (In Cell Western methylation)) were 101 to 1000 nM and under 100 nM, respectively. For the same compound, on PRMT5/MEP50 (PRMT5 biochemical assay), the IC50 was under 100 nM.
For `O=C(NC[C@H](O)CN1CCc2ccccc2C1)c1cc(NC2CNC2)nc(C(F)(F)F)n1` [Compound 456], the EC50 (with Z-138 cell line (setting [2]); in assay [1] (In Cell Western methylation)) was 101 to 1000 nM in each case. The half-inhibitory concentration (IC50) at PRMT5/MEP50 (PRMT5 biochemical assay) is under 100 nM.
Regarding `O=C(NCCCN1CCc2ccccc2C1)c1cc(NC2COC2)ncn1` [Compound 651], the EC50 with Z-138 cell line (setting [2]) was over 5000 nM; in assay [1] (In Cell Western methylation), over 1000 nM. For the same compound, the half-maximal inhibitory concentration (IC50) on PRMT5/MEP50 (PRMT5 biochemical assay) lay within 101 to 1000 nM.
As for `CC(=O)N1CC(Nc2cc(C(=O)NC[C@H](O)CN3CCc4ccc(C)cc4C3)ncn2)C1` [Compound 667], the values for the EC50 (in the assay with Z-138 cell line (setting [2]); in assay [1] (In Cell Western methylation)) were 1000 to 10000 nM and under 100 nM, respectively. At PRMT5/MEP50 (PRMT5 biochemical assay), the half-inhibitory concentration (IC50) is 101 to 1000 nM.
For `CC(=O)N1CCC(Nc2cc(C(=O)NC[C@H](O)CN3CCc4c(C)cccc4C3)ncn2)CC1` [Compound 677], the EC50 is 1000 to 10000 nM with Z-138 cell line (setting [2]) and under 100 nM in assay [1] (In Cell Western methylation). For the same compound, the half-maximal inhibitory concentration (IC50) at PRMT5/MEP50 (PRMT5 biochemical assay) is under 100 nM.
`NS(=O)(=O)c1ccc(C(=O)NCC(O)CN2CCc3ccccc3C2)cc1` (stereo not drawn) [Compound 21, N-(3-(3,4-dihydroisoquinolin-2(1H)-yl)-2-hydroxypropyl)-4-sulfamoylbenzamide]: the EC50 in the assay on Z-138 cell line (120 h, Z-138 cells, 5 days) was over 20000 nM; in assay [1] it was 101 to 1000 nM. Moreover, the IC50 at PRMT5/MEP50 lay within 101 to 1000 nM.
Turning to `CC(=O)N1CCC(Nc2cc(C(=O)NCC(C)(O)CN3CCc4ccccc4C3)ncn2)CC1` (stereo not drawn) [Compound 649], the values for the EC50 (with Z-138 cell line (setting [2]); in assay [1] (In Cell Western methylation)) were 1000 to 10000 nM and under 100 nM, respectively. Further, the IC50 at PRMT5/MEP50 (PRMT5 biochemical assay) is under 100 nM.
As for `O=C(NC[C@H](O)CN1CCc2ccccc2C1)c1cc(NC2CCC2)ncn1` [Compound 355], the EC50 in the assay on Z-138 cell line (120 h, Z-138 cells, 5 days) was under 100 nM; in assay [1], under 100 nM. For the same compound, the concentration for half-maximal inhibition (IC50) at PRMT5/MEP50 is under 100 nM.
In the case of `O=C(NC[C@H](O)CN1CCc2ccccc2C1)c1cn2nc(Cl)ccc2n1` [Compound 404], the EC50 fell in the range of 10000 to 50000 nM in the assay with Z-138 cell line (setting [2]) and 101 to 1000 nM in assay [1] (In Cell Western methylation). The IC50 on PRMT5/MEP50 (PRMT5 biochemical assay) is under 100 nM.
